Measured values from US8906908B2, “Hydroxybupropion analogues for treating drug dependence” (priority 2010, dated 2014).
Where two headings read alike, the source gives them in different places.

Legend:
[1] = biological target: T1, NE transporters [h(NET)] (Homo sapiens, UniProt P23975); test: Inhibition of [3H]norepinephrine uptake into HEK293 cells stably expressing hNET; type: cell-based; conditions: for IC50: HEK293-hNET, mean ± standard error of three independent experiments, read-out: monoamine uptake inhibition IC50 [3H]NE; for selectivity for inhibition of NE over DA uptake: ratio of uptake IC50 values
T1 construct: expressed in transfected cells; host or cells: HEK-293
T1 sequence (P23975 whole entry): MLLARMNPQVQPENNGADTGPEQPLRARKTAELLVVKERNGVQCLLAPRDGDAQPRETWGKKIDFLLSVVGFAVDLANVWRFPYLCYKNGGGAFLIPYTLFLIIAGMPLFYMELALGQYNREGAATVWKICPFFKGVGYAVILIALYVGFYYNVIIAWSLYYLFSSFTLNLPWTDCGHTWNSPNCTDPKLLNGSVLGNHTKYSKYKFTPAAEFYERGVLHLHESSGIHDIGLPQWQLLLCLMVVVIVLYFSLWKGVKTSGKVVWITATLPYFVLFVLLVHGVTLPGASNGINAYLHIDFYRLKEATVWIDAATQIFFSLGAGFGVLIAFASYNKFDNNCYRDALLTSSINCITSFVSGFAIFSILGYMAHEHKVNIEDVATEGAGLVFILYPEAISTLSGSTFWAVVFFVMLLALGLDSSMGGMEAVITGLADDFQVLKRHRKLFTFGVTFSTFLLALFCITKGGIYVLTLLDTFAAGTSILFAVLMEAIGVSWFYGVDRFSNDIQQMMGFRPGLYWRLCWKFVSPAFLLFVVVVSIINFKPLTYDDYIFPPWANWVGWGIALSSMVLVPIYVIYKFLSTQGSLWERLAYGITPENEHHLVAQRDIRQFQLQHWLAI
Excerpt: (§1) Cell Lines and Culture: Human embryonic kidney (HEK-293) cells stably expressing human DAT, NET or SERT were maintained as previously described in Eshleman, A. J.; Carmolli, M.; Cumbay, M.; Martens, C. R.; Neve, K. A.; Janowsky, A., J. Pharmacol. Exp. Ther. 1999, 289, (2), 877-885. Use was made of several human cell lines that naturally or heterologously express specific, functional, human nAChR subtypes. Cells of the TE671/RD line naturally expresses muscle-type nAChR (a1β1γδ- or α1*-nAChR), and SH-SY5Y neuroblastoma cells naturally expresses autonomic α3β4*-nAChRs (containing α3, β4, probably α5, and sometimes β2 subunits). Different clones of SH-EP1 epithelial cell lines have been engineered to heterologously express either α4β2-nAChR, which are thought to be the most abundant, high affinity nicotine-binding nAChR in mammalian brain, or α4β4-nAChR, another possible brain nAChR subtype (SH-EP1-hα4β2 or α4β4 cells, respectively). These cells were maintained as low passage number (1-26 from our frozen stocks) cultures to ensure stable expression of native or heterologously-expressed nAChR as previously described (see Lukas, R. J.; Fryer, J. D.; Eaton, J. B.; L., G. C., Some methods for studies of nicotinic acetylcholine receptor pharmacology, in Nicotinic receptors and the Nervous System, Levine, E. D., Ed. CRC Press: Boca Raton, 2002; pp 3-27, incorporated herein by reference in its entirety). Cells were passaged once weekly by splitting just-confluent cultures 1/300 (TE671/RD), 1/5 (SH-SY5Y), or 1/20 (transfected SH-EP1) in serum-supplemented medium to maintain log-phase growth.
(§2) See, for example, Damaj, M. I.; Carroll, F. I.; Eaton, J. B.; Navarro, H. A.; Blough, B. E.; Mirza, S.; Lukas, R. J.; Martin, B. R., Mol. Pharmacol. 2004, 66, (3), 675-682 and Eshleman, A. J.; Carmolli, M.; Cumbay, M.; Martens, C. R.; Neve, K. A.; Janowsky, A., J. Pharmacol. Exp. Ther. 1999, 289, (2), 877-885, both incorporated by reference herein in their entireties.

[2] = biological target: T2, α4β2-nAChR (Homo sapiens, UniProt P17787+P43681); test: 86Rb+ efflux nAChR functional assay, SH-EP1-hα4β2 cells; type: cell-based
T2 construct: expressed in transfected cells; host or cells: SH-EP1 epithelial cells (SH-EP1-hα4β2)
T2 sequence (P43681 29-627 limits assumed): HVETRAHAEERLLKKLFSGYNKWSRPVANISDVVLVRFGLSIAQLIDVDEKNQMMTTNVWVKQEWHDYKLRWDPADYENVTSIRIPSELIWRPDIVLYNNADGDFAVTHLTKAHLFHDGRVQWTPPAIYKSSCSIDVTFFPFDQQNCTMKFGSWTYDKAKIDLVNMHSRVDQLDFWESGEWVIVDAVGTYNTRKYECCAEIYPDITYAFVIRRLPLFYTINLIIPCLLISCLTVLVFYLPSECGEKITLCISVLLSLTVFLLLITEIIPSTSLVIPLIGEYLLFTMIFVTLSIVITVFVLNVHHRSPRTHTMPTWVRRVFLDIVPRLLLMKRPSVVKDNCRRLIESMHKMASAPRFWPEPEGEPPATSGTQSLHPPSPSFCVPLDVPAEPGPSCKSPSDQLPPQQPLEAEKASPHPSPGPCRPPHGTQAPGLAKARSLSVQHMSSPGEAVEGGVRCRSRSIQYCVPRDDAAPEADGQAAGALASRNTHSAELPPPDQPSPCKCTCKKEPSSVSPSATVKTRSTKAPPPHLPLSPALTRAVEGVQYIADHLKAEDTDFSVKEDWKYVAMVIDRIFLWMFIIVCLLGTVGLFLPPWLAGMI
T2 sequence (P17787 26-502): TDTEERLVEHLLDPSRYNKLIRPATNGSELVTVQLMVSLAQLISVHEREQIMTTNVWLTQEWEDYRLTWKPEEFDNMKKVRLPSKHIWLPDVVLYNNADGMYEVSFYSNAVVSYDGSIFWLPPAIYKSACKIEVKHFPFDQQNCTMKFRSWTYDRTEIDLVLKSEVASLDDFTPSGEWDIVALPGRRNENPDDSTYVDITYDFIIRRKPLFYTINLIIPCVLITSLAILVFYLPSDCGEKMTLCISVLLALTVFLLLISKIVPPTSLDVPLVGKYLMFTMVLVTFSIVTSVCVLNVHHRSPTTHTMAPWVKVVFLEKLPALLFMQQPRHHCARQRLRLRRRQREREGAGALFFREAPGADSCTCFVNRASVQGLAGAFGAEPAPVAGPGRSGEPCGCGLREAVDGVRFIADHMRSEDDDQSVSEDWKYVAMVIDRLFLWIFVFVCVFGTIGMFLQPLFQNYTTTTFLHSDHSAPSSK
Excerpt: as §1
(§3) After cells had adhered (generally overnight, but no sooner than 4 h later), the medium was removed and replaced with 250 μL per well of complete medium supplemented with ˜350,000 cpm of ^86Rb^+ (PerkinElmer Life and Analytical Sciences, Boston, Mass.) and counted at 40% efficiency using Cerenkov counting (TriCarb 1900 liquid scintillation analyzer[…]; PerkinElmer Life Sciences).
(§4) After at least 4 h and typically overnight, ^86Rb^+ efflux was measured using the “flip-plate” technique. See Lukas, R. J.; Fryer, J. D.; Eaton, J. B.; L., G. C., Some methods for studies of nicotinic acetylcholine receptor pharmacology, in Nicotinic receptors and the Nervous System, Levine, E. D., Ed. CRC Press: Boca Raton, 2002; pp 3-27, incorporated herein by reference in its entirety). Briefly, after aspiration of the bulk of ^86Rb^+ loading medium from each well of the “cell plate,” each well containing cells was rinsed 3× with 2 mL of fresh ^86Rb^+ efflux buffer (130 mM NaCl, 5.4 mM KCl, 2 mM CaCl2, 5 mM glucose, 50 mM HEPES, pH 7.4) to remove extracellular ^86Rb^+. Following removal of residual rinse buffer by aspiration, the flip-plate technique was used again to simultaneously introduce 1.5 mL of fresh efflux buffer containing drugs of choice at indicated final concentrations from a 24-well “efflux/drug plate” into the wells of the cell plate. After a 5 min incubation, the solution was “flipped” back into the efflux/drug plate, and any remaining buffer in the cell plate was removed by aspiration. Cells remaining in the cell plate were lysed and suspended by addition of 1.5 mL of 0.1 M NaOH, 0.1% sodium dodecyl sulfate to each well.
(§5) Similarly, the sum of ^86Rb^+ in cell plates and efflux/drug plates also determined the efficiency of ^86Rb^+ loading (the percentage of applied ^86Rb^+ actually loaded into cells).
(§6) Specific efflux was then taken as the difference in control samples between total and non-specific ^86Rb^+ efflux. Any intrinsic agonist activity of test drugs was ascertained using samples containing test drug only at different concentrations and was normalized, after subtraction of non-specific efflux, to specific efflux in test drug-free, control samples.

[3] = biological target: T3, α4β4-nAChR (Homo sapiens, UniProt P30926+P43681); test: 86Rb+ efflux nAChR functional assay, SH-EP1-hα4β4 cells; type: cell-based; conditions: EC80-EC90 carbamylcholine, parentheses = S.E.M. as multiplication/division factor, read-out: nAChR inhibition IC50 α4β4
T3 construct: expressed in transfected cells; host or cells: SH-EP1 epithelial cells (SH-EP1-hα4β4)
T3 sequence (P43681 29-627 limits assumed): as the sequence (P43681 29-627 limits assumed) above
T3 sequence (P30926 22-498): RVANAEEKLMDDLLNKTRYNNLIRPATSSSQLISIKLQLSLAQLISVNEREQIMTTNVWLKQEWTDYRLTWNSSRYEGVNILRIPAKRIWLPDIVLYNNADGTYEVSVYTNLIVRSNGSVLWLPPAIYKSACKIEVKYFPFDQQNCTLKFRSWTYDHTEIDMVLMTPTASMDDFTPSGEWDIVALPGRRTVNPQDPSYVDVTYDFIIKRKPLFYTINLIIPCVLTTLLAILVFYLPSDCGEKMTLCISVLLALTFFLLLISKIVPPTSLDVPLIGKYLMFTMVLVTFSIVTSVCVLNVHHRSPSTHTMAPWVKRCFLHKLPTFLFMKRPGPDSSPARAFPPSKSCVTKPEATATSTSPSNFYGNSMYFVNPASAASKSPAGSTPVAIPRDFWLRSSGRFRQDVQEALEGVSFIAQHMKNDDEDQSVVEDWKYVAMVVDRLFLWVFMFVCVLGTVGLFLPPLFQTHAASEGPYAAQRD
Excerpt: as §1, §3, §4, §5, §6

[4] = biological target: T4, 5HT transporters [(h)SERT] (Homo sapiens, UniProt P31645); test: Inhibition of [3H]serotonin uptake into HEK293 cells stably expressing hSERT; type: cell-based; conditions: read-out: monoamine uptake inhibition IC50 [3H]5HT
T4 construct: expressed in transfected cells; host or cells: HEK-293
T4 sequence (P31645 whole entry): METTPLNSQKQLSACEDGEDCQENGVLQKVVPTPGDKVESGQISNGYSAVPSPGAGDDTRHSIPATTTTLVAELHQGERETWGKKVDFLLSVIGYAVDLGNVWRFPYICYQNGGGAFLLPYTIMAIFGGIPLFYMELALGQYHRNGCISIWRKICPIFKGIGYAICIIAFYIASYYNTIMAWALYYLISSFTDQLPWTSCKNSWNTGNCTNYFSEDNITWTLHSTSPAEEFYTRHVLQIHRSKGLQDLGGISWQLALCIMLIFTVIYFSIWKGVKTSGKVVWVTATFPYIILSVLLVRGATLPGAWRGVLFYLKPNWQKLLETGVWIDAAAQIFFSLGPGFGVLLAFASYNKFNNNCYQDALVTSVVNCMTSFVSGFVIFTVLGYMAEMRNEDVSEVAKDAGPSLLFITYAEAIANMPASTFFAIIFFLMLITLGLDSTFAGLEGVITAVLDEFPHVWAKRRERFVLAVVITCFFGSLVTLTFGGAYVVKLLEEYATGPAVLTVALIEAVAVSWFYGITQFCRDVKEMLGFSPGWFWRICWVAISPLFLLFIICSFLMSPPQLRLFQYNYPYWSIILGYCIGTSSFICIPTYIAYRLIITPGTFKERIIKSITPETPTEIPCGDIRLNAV
Excerpt: as §1, §2

[5] = test system: Male Institute of Cancer Research (ICR) mice; test: Locomotor activity, antagonism of nicotine effect; type: in vivo; conditions: for AD50 Locomotion: pretreatment 15 min before nicotine […] s.c.
Excerpt: Animals: Male Institute of Cancer Research (ICR) mice (weighing 20-25 g) obtained from Harlan (Indianapolis, Ind.) were used throughout the study. Animals were housed in an Association for Assessment and Accreditation of Laboratory Animal Care-approved facility, were placed in groups of six, and had free access to food and water. Studies were approved by the Institutional Animal Care and Use Committee of Virginia Commonwealth University.
Locomotor Activity: Mice were placed into individual Omnitech photocell activity cages (28×16.5 cm; Omnitech Electronics, Columbus, Ohio) 5 min after subcutaneous administration of either 0.9% saline or nicotine (1.5 mg/kg). Interruptions of the photocell beams (two banks of eight cells each) were then recorded for the next 10 min. Data were expressed as the number of photocell interruptions.

[6] = biological target: T5, α3β4*-nAChR (Homo sapiens, UniProt P30926+P32297); test: 86Rb+ efflux nAChR functional assay, SH-SY5Y cells; type: cell-based; conditions: EC80-EC90 carbamylcholine; SH-SY5Y; parentheses = S.E.M. as multiplication/division factor; read-out: nAChR inhibition IC50 α3β4±
T5 construct: other: EC80-EC90 carbamylcholine; SH-SY5Y; parentheses = S.E.M. as multiplication/division
T5 sequence (P32297 32-505): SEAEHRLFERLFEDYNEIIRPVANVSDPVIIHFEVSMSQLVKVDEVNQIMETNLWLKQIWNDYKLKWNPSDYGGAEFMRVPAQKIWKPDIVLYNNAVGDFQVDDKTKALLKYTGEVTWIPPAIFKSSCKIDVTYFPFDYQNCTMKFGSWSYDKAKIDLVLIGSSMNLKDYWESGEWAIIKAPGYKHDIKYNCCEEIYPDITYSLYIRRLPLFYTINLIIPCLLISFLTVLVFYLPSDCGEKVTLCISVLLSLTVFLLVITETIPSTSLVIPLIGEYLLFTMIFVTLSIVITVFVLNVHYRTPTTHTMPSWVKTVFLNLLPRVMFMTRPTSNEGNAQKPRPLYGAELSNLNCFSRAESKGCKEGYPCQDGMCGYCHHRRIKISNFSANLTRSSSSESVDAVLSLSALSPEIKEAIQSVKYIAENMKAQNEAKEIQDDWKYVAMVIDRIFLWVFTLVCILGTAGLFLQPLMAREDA
T5 sequence (P30926 22-498): as the sequence (P30926 22-498) above
Excerpt: as §1, §3, §4, §5, §6

[7] = EC80-EC90 carbamylcholine, SH-EP1-hα4β2, parentheses = S.E.M. as multiplication/division factor, read-out: nAChR inhibition IC50 α4β2
[8] = HEK293-hSERT, mean ± standard error of three independent experiments

| Compound | selectivity for inhibition of NE uptake over α4β2-nAChR function [1] [fold] | IC50 [1] [µM] | IC50 [2] [µM] | IC50 [2, 7] [µM] | IC50 [3] [µM] | IC50 [4, 8] [µM] | AD50 Locomotion [5] | IC50 [6] [µM] | selectivity for inhibition of NE over DA uptake [1] [fold] | IC50 [4] [µM] | selectivity for inhibition of NE uptake over α3β4*-nAChR function [1] [fold] | ED50 ([5]; Mus musculus, pretreatment 15 min before nicotine 1.5 mg/kg s.c., read-out: AD50 Locomotion) [mg/kg] |
| --- | --- | --- | --- | --- | --- | --- | --- | --- | --- | --- | --- | --- |
| C[C@@H]1NC(C)(C)CO[C@@]1(O)c1cc(F)cc(F)c1 [Compound 4o, (2S,3S)-2-(3,5-Difluorophenyl)-3,5,5-trimethylmorpholin-2-ol] | 42 | 0.151 ± 0.043 | < 10 | 6.3 | 62 | > 10 | IA (IA: AD50 > 15 mg/kg) | 11 | – | – | – | – |
| C[C@@H]1NC(C)(C)CO[C@@]1(O)c1cccc2ccccc12 [Compound 4q, (2S,3S)-2-(Naphthalen-1-yl)-3,5,5-trimethylmorpholin-2-ol] | – | 0.411 ± 0.053 | – | 9 | 13 | – | IA (IA: AD50 > 15 mg/kg) | 5.2 | 24 | 1.56 ± 0.215 | – | – |
| C[C@@H]1NC(C)(C)CO[C@@]1(O)c1ccc2ccccc2c1 [Compound 4r, (2S,3S)-2-(Naphthalen-2-yl)-3,5,5-trimethylmorpholin-2-ol] | ~4 | 1.57 ± 0.43 | – | 6.5 | 11 | – | IA (IA: AD50 > 15 mg/kg) | 2 | – | 0.334 ± 0.042 | 1.3 | – |
| CC[C@@H]1NC(C)(C)CO[C@@]1(O)c1cccc(Cl)c1 [Compound 4s, (2S,3S)-2-(3-Chlorophenyl)-3-ethyl-5,5-dimethylmorpholin-2-ol] | – | 0.043 | – | 2.9 | 16 | – | – | 4.3 | 5 | 2.5 ± 0.54 | – | 10.3 |
| C[C@@H]1N(C)C(C)(C)CO[C@@]1(O)c1cccc(Cl)c1 [Compound 4u, (2S,3S)-2-(3-Chlorophenyl)-3,4,5,5-tetramethylmorpholin-2-ol] | – | 0.415 ± 0.009 | – | 7.1 | 43 | > 10 | IA (IA: AD50 > 15 mg/kg) | 6.5 | – | – | – | – |
| C[C@@H]1N(C)C(C)(C)CO[C@@]1(O)c1ccc(Cl)cc1 [Compound 4v, (2S,3S)-2-(4-Chlorophenyl)-3,4,5,5-tetramethylmorpholin-2-ol] | – | 0.527 ± 0.104 | – | 42 | 91 | 6.48 ± 1.28 | IA (IA: AD50 > 15 mg/kg) | 4.6 | – | – | – | – |
